In patent publication US12552772B2, “2-pyrazole anilines and related analogs for inhibiting YAP/TAZ-TEAD” (KATHOLIEKE UNIVERSITEIT LEUVEN, priority 2021, dated 2026):
pEC50: −log10 of the molar value.

test system: YAP/TAZ-TEAD transcription; test: Reporter gene assay for measuring the inhibition of YAP/TAZ-TEAD transcription (TEAD-responsive element luciferase reporter in Hek293T cells); assay type: cell-based; conditions: Homo sapiens, HEK-293T, 24 hours incubation
Protocol: Hek293T cells are cultured in DMEM supplemented with 10% fetal bovine serum, Sodium pyruvate, Sodium bicarbonate, L-glutamine. The cells are harvested and transiently transfected with TEAD-responsive element luciferase reporter. Transfected cells are plated in 384-wells plate containing pre-diluted compounds. After 24 hours incubation at 37° C./5% CO2, assay plates were cooled down to RT and levelled to an equal volume per well, prior to the addition of 25 uL luciferase substrate SteadyLite (Perkin Elmer)/well. The plate was shaken for 10 min at 600 rpm, centrifuged for 1 min at 500 rpm and measured with an Envision reader (PerkinElmer). The amount of relative light units produced by the TEAD reporter is used to calculated percent of inhibition.
The percent of reporter inhibition was calculated in the presence of a positive control inhibitor (100% inhibition) versus a condition with the presence of the vehicle basal activity of the reporter (0% inhibition). The ability of a test compound to inhibit this activity was determined as: Percentage inhibition=[1−((RLU determined in the presence of vehicle−RLU determined for sample with test compound present) divided by (RLU determined in the presence of vehicle−RLU determined for sample with positive control inhibitor))]*100
The activities of the example compounds tested are depicted in the table below. The activity ranges A, B and C refer to EC50 values in the reporter gene assay as described as follows: “A”: EC50<1 μM; “B”: 1 μM s EC50≤20 μM and “C”: EC50>20 μM, NT=not tested.

| Structure (SMILES) | pEC50 |
| --- | --- |
| C=CC(=O)NCc1cnc(-c2ccc(F)cc2)cc1-c1cnn(C(F)F)c1 [Cpd. No. 224, N-((4-(1-(difluoromethyl)-1H-pyrazol-4-yl)-6-(4-fluorophenyl)pyridin-3-yl)methyl)acrylamide] | 4.70 to 6.00 |
| C=CC(=O)NCc1c(-c2ccn(C)n2)cc(-c2ccc(F)cc2)[nH]c1=O [Cpd. No. 233, N-((6-(4-fluorophenyl)-4-(1-methyl-1H-pyrazol-3-yl)-2-oxo-1,2-dihydropyridin-3-yl)methyl)acrylamide] | < 4.70 |
| C=CC(=O)NCc1[nH]c(=O)c(-c2ccc(F)cc2)cc1-c1ccn(C)n1 [Cpd. No. 234, N-((5-(4-fluorophenyl)-3-(1-methyl-1H-pyrazol-3-yl)-6-oxo-1,6-dihydropyridin-2-yl)methyl)acrylamide] | > 6.00 |
| C=CC(=O)NCc1cc(=O)n(-c2ccc(F)cc2)cc1-c1ccn(C)n1 [Cpd. No. 235, N-((1-(4-fluorophenyl)-5-(1-methyl-1H-pyrazol-3-yl)-2-oxo-1,2-dihydropyridin-4-yl)methyl)acrylamide] | < 4.70 |
| C=CC(=O)NC1(c2ccc(-c3ccc(F)cc3)cc2-c2ccn(C)n2)CC1 [Cpd. No. 256, N-(1-(4′-fluoro-3-(1-methyl-1H-pyrazol-3-yl)-[1,1′-biphenyl]-4-yl)cyclopropyl)acrylamide] | > 6.00 |
| C=CC(=O)N1CCC(c2cc(-c3ccc(F)cc3)nc(-c3ccn(C(F)F)n3)c2)C1 (stereo not drawn) [Cpd. No. 264, 1-(3-(2-(1-(difluoromethyl)-1H-pyrazol-3-yl)-6-(4-fluorophenyl)pyridin-4-yl)pyrrolidin-1-yl)prop-2-en-1-one] | > 6.00 |
| NC(=O)c1cncc(-c2cccc(-c3ccn(Cc4ccccc4)n3)c2)c1 [compound 002, 5-(3-(1-benzyl-1H-pyrazol-3-yl)phenyl)nicotinamide] | > 6.00 |
| Nc1cncc(-c2cccc(-c3ccn(Cc4ccccc4)n3)c2)c1 [compound 003, 5-(3-(1-benzyl-1H-pyrazol-3-yl)phenyl)pyridin-3-amine] | 4.70 to 6.00 |
| N#Cc1cncc(-c2cccc(-c3ccn(Cc4ccccc4)n3)c2)c1 [compound 005, 5-(3-(1-benzyl-1H-pyrazol-3-yl)phenyl)nicotinonitrile] | 4.70 to 6.00 |
| CCC(=O)Nc1cncc(-c2cccc(-c3ccn(Cc4ccccc4)n3)c2)c1 [compound 006, N-(5-(3-(1-benzyl-1H-pyrazol-3-yl)phenyl)pyridin-3-yl)propionamide] | 4.70 to 6.00 |
| CC(=O)Nc1cncc(-c2cccc(-c3ccn(Cc4ccccc4)n3)c2)c1 [compound 007, N-(5-(3-(1-benzyl-1H-pyrazol-3-yl)phenyl)pyridin-3-yl)acetamide] | > 6.00 |
| C=CC(=O)Nc1cc(-c2cccc(-c3ccn(Cc4ccccc4)n3)c2)ccn1 [compound 009, N-(4-(3-(1-benzyl-1H-pyrazol-3-yl)phenyl)pyridin-2-yl)acrylamide] | > 6.00 |
| C=CC(=O)Nc1ccc(-c2cccc(-c3ccn(Cc4ccccc4)n3)c2)cn1 [compound 010, N-(5-(3-(1-benzyl-1H-pyrazol-3-yl)phenyl)pyridin-2-yl)acrylamide] | 4.70 to 6.00 |
| C=CC(=O)Nc1cncc(-c2cccc(-c3ccn(Cc4ccc(C(F)(F)F)cc4)n3)c2)c1 [compound 011, N-(5-(3-(1-(4-(trifluoromethyl)benzyl)-1H-pyrazol-3-yl)phenyl)pyridin-3-yl)acrylamide] | 4.70 to 6.00 |
| C=CC(=O)Nc1cncc(-c2cccc(-c3ccn(Cc4cccc(C(F)(F)F)c4)n3)c2)c1 [compound 012, N-(5-(3-(1-(3-(trifluoromethyl)benzyl)-1H-pyrazol-3-yl)phenyl)pyridin-3-yl)acrylamide] | 4.70 to 6.00 |
| c1ccc(-c2cccc(-c3ccn(Cc4cccnc4)n3)c2)cc1 [compound 014, 3-((3-([1,1′-biphenyl]-3-yl)-1H-pyrazol-1-yl)methyl)pyridine] | 4.70 to 6.00 |
| c1ccc(-c2cccc(-c3ccnn3Cc3cccnc3)c2)cc1 [compound 015, 3-((5-([1,1′-biphenyl]-3-yl)-1H-pyrazol-1-yl)methyl)pyridine] | < 4.70 |
| c1ccc(Cn2ccc(-c3cccc(-c4cncnc4)c3)n2)cc1 [compound 016, 5-(3-(1-benzyl-1H-pyrazol-3-yl)phenyl)pyrimidine] | 4.70 to 6.00 |
| Fc1cccc(Cn2ccc(-c3cccc(-c4ccccc4)c3)n2)c1 [compound 018, 3-([1,1′-biphenyl]-3-yl)-1-(3-fluorobenzyl)-1H-pyrazole] | 4.70 to 6.00 |
| COc1cccc(Cn2ccc(-c3cccc(-c4ccccc4)c3)n2)c1 [compound 019, 3-([1,1′-biphenyl]-3-yl)-1-(3-methoxybenzyl)-1H-pyrazole] | 4.70 to 6.00 |
| N#Cc1cccc(Cn2ccc(-c3cccc(-c4ccccc4)c3)n2)c1 [compound 020, 3-((3-([1,1′-biphenyl]-3-yl)-1H-pyrazol-1-yl)methyl)benzonitrile] | 4.70 to 6.00 |
| c1ccc(-c2cccc(-c3ccn(Cc4ccncc4)n3)c2)cc1 [compound 022, 4-((3-([1,1′-biphenyl]-3-yl)-1H-pyrazol-1-yl)methyl)pyridine] | 4.70 to 6.00 |
| c1ccc(-c2cccc(-c3ccn(CCc4cccnc4)n3)c2)cc1 [compound 023] | 4.70 to 6.00 |

Results, then the compound that gave them:

| pEC50 | Structure (SMILES) |
| --- | --- |
| > 6.00 | C=CC(=O)NCc1cnc(-c2ccc(F)cc2)cc1-c1cn(C(F)F)nn1 [Cpd. No. 229, N-((4-(1-(difluoromethyl)-1H-1,2,3-triazol-4-yl)-6-(4-fluorophenyl)pyridin-3-yl)methyl)acrylamide] |
| > 6.00 | C=CC(=O)NCc1cnc(-c2ccc(F)cc2)cc1-n1cccn1 [Cpd. No. 239, N-((6-(4-fluorophenyl)-4-(1H-pyrazol-1-yl)pyridin-3-yl)methyl)acrylamide] |
| > 6.00 | C=CC(=O)NC1CC1c1ccc(-c2ccccc2)cc1-c1ccn(C)n1 (stereo not drawn) [Cpd. No. 257, N-(2-(3-(1-methyl-1H-pyrazol-3-yl)-[1,1′-biphenyl]-4-yl)cyclopropyl)acrylamide] |
| > 6.00 | C=CC(=O)N1CCC(c2cc(-c3ccc(F)cc3)cc(-c3ccn(C(F)F)n3)n2)C1 (stereo not drawn) [Cpd. No. 265, 1-(3-(6-(1-(difluoromethyl)-1H-pyrazol-3-yl)-4-(4-fluorophenyl)pyridin-2-yl)pyrrolidin-1-yl)prop-2-en-1-one] |
| < 4.70 | O=C(O)c1cncc(-c2cccc(-c3ccn(Cc4ccccc4)n3)c2)c1 [compound 001, 5-(3-(1-benzyl-1H-pyrazol-3-yl)phenyl)nicotinic acid] |
| 4.70 to 6.00 | C=CC(=O)Nc1ccccc1-c1cccc(-c2ccn(Cc3ccccc3)n2)c1 [compound 008, N-(3′-(1-benzyl-1H-pyrazol-3-yl)-[1,1′-biphenyl]-2-yl)acrylamide] |
| 4.70 to 6.00 | C=CC(=O)Nc1cncc(-c2cccc(-c3ccn(C)n3)c2)c1 [compound 013, N-(5-(3-(1-methyl-1H-pyrazol-3-yl)phenyl)pyridin-3-yl)acrylamide] |
| 4.70 to 6.00 | c1ccc(Cn2nccc2-c2cccc(-c3cncnc3)c2)cc1 [compound 017, 5-(3-(1-benzyl-1H-pyrazol-5-yl)phenyl)pyrimidine] |
| 4.70 to 6.00 | c1ccc(-c2cccc(-c3ccn(Cc4ccccn4)n3)c2)cc1 [compound 021, 2-((3-([1,1′-biphenyl]-3-yl)-1H-pyrazol-1-yl)methyl)pyridine] |
| 4.70 to 6.00 | Cn1ccc(Cn2ccc(-c3cccc(-c4ccccc4)c3)n2)cc1=O [compound 024, 4-((3-([1,1′-biphenyl]-3-yl)-1H-pyrazol-1-yl)methyl)-1-methylpyridin-2(1H)-one] |
